The test system of test [1] is protein trafficking from the ER to the Golgi apparatus. Kind of test: Glycoprotein (PLAP-HA) transport from the ER to the Golgi apparatus. Particulars: 2.5 μM; CHO-K1 transformant expressing PLAP-HA (FIG. 7). Format: cell-based, Chinese hamster.
Test [2] deals with de novo synthesis of SM in CHO cells. Kind of test: Metabolic labeling of lipids with [14C]serine in CHO cells. Format: cell-based, Chinese hamster. To be noted: for inhibition of de novo SM synthesis (stereoisomers): [14C]serine labeling (FIG. 6B). How it is done: (§1) CHO cells are cultured in Ham's F12 medium supplemented with 10% newborn bovine serum (NBS), penicillin G (100 unit/mL) and streptomycin sulfate (100 μg/mL) at the temperature of 33° C. and 5% CO2 atmosphere. In the case of HeLa cells, Dulbecco's minimum essential medium is used as a base medium instead of Ham's F12 medium.
Further, Nutridoma medium (Ham's F12 medium containing 1% Nutridoma-SP, product of Roche Molecular Biochemicals, and 25 μg/mL of gentamicin) is used as a serum-free medium. In the case when the medium is supplemented by DMSO or drugs dissolved in DMSO, the concentration of DMSO in culture medium is adjusted to be 0.01%.
CHO cells are seeded at the density of 1.0×10^6 cell in 5 mL of F12 medium containing 10% NBS, by per 60-mm dish, and cultured at 33° C. overnight. Then, the medium is changed to 1.5 mL of Nutridoma medium if necessary, various drugs are added and incubated at 4° C. for 15 minutes. Then, after addition of [^14C] serine (0.75 μCi) or [^14 C] choline (1.0 μCi) to the medium, cells were incubated at 33° C. for various periods of time.
Cells are washed twice with 2 mL of cold phosphate-buffered saline (PBS), and lysed with 900 μL of 0.1% sodium dodecyl sulfate (SDS). Then, 800 μL and 20 μL of lysate are used for lipid extraction and determination of protein concentration, respectively.
For the analysis of lipids labeled with [C^14C] serine, lipids were separated by TLC with a solvent consisting of methylacetate/n-propanol/chloroform/methanol/0.25%KCl (25:25:25:10:9, volume ratio) as a developing solvent.
Radioactive lipid separated on the TLC plates are detected with image analyzer depicted above. After the collection of gels from TLC plates by scraping, the radioactivity of each lipid is determined by liquid scintillation counting and normalized to the protein concentration of cells.

The subject of test [3] is synthesis of SM in HeLa cells. Kind of test: De novo synthesis of SM in HeLa cells. It counts as cell-based. Particulars: FIG. 6D. How it is done: as §1

For `CCCCCCCCCCCC(=O)N[C@@H](CO)C[C@@H](O)c1ccccc1` [(1R, 3R)-HPA-12], the “maturation rate of newly synthesized PLAP-HA to an EndoH-resistant form” value in test [1] is recorded as “not affected”. The “inhibitory activity on the Cer-to-SM conversion among four stereoisomers” value in test [2] (FIG. 6B, 6C) is “strongest inhibitory activity”. The “inhibition of de novo SM synthesis (stereoisomers)” value in test [2] was “strongly”. In test [3], the “synthesis of SM in HeLa cells” value is reported as “inhibits”.
`CCCCCCCCCCCC(=O)N[C@H](CO)C[C@H](O)c1ccccc1` [(1S, 3S)-HPA-12]: the “inhibition of de novo SM synthesis (stereoisomers)” value in test [2] is listed as “moderately”.
Turning to `CCCCCCCCCCCCCCCC(=O)NC(CO)CC(O)c1ccccc1` (stereo not drawn) [HPA-16], the “formation of [14C]SM” value in test [2] (2.5 μM drug, [14C]serine labeling, CHO cells (FIG. 1B)) is listed as “less than that of HPA-12”.
